Data taken from publication PMC9469100, “Turning Nonselective Inhibitors of Type I Protein Arginine Methyltransferases into Potent and Selective Inhibitors of Protein Arginine Methyltransferase 4 through a Deconstruction–Reconstruction and Fragment-Growing Approach” (Journal of Medicinal Chemistry, 2022).
Like-named read-outs stand apart in the source and are kept apart here.

Assays:
PRMT7 = target: T1, PRMT7 (Homo sapiens, UniProt Q9NVM4); test: Radioisotope-based filter-binding (HotSpot) assay, PRMT7; settings: read-out: IC50 (μM) PRMT7; radioisotope-based filter assay; 5 μM GST-GAR; 1 μM 3H-SAM
T1 sequence (Q9NVM4 2-692): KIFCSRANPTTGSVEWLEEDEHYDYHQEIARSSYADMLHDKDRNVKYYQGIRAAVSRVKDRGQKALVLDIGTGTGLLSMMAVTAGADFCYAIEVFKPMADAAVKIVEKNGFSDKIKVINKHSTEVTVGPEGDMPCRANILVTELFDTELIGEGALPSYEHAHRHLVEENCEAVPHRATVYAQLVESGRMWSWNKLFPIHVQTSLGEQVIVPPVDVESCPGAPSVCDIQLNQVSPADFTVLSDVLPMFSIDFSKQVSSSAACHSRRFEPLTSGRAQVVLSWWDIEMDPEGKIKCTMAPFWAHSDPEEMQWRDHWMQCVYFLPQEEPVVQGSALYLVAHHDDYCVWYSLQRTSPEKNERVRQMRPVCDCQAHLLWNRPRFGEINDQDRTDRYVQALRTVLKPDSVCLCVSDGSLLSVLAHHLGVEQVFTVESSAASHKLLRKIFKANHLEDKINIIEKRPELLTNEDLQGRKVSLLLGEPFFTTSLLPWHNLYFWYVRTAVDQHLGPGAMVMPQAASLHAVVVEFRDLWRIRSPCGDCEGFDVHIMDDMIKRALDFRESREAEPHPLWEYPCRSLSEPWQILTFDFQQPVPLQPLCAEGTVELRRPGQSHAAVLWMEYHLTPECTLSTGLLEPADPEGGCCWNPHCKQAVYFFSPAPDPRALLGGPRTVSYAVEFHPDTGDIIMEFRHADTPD
Protocol: (§1) Then, ^3H-SAM (final concentration 1 μM) was delivered into the reaction mixture to initiate the reaction. After incubation for 60 min at 30 °C, the reaction mixture was delivered to filter paper for detection (as assessed by scintillation). Data were analyzed using Excel and GraphPad Prism 6.0 software (GraphPad Software Inc., San Diego, CA) for IC50 curve fits using sigmoidal dose vs response-variable slope (four parameters) equations.

PRMT6 = PRMT6 (Homo sapiens, UniProt Q96LA8); test: Radioisotope-based filter-binding (HotSpot) assay, PRMT6; settings: radioisotope-based filter assay
Sequence of PRMT6 (Q96LA8 2-375): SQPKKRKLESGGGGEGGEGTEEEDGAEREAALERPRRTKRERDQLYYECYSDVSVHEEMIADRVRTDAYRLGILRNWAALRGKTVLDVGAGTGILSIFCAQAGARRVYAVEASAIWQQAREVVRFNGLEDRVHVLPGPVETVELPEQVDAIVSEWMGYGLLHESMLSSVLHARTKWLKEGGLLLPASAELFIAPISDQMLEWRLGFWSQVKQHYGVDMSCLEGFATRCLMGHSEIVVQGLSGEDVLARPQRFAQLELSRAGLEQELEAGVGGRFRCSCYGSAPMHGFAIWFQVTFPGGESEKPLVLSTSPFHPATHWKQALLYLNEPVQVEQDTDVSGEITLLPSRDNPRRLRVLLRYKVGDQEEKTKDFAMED
Protocol: as §1

ΔN(1–60)-PRMT8 = ΔN(1–60)-PRMT8 (Homo sapiens, UniProt Q9NR22); test: Radioisotope-based filter-binding (HotSpot) assay, PRMT8
Sequence of ΔN(1–60)-PRMT8 (Q9NR22 61-394, stated change not applied): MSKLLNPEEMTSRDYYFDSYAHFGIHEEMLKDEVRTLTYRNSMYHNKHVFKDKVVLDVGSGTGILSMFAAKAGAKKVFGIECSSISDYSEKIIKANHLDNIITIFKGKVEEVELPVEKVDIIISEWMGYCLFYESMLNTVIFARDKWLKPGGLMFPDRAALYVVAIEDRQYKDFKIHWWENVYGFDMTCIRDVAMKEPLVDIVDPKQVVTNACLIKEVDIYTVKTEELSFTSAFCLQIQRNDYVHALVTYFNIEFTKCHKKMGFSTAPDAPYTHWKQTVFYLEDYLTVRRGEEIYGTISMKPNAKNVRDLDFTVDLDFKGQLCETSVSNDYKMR
Protocol: as §1

PRMT5/MEP50 complex = PRMT5/MEP50 complex (Homo sapiens, UniProt O14744); test: Radioisotope-based filter-binding (HotSpot) assay, PRMT5
Sequence of PRMT5/MEP50 complex (O14744 2-637): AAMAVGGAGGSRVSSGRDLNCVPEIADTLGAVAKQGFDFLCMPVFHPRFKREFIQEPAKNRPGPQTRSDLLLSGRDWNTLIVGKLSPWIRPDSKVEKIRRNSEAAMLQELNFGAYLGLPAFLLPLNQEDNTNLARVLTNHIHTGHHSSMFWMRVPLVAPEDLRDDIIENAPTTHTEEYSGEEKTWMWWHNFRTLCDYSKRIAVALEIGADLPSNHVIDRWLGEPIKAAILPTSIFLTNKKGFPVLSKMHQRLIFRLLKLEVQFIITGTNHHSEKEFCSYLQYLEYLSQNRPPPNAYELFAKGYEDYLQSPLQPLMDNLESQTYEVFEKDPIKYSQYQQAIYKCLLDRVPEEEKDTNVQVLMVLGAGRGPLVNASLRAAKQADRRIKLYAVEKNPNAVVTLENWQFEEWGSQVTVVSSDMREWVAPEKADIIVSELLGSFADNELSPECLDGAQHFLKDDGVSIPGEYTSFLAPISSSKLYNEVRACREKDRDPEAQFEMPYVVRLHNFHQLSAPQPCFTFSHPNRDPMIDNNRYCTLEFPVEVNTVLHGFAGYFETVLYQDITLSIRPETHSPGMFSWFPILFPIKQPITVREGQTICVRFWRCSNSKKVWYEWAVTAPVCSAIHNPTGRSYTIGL
Sequence of PRMT5/MEP50 complex (Q9BQA1 2-342 partner limits assumed): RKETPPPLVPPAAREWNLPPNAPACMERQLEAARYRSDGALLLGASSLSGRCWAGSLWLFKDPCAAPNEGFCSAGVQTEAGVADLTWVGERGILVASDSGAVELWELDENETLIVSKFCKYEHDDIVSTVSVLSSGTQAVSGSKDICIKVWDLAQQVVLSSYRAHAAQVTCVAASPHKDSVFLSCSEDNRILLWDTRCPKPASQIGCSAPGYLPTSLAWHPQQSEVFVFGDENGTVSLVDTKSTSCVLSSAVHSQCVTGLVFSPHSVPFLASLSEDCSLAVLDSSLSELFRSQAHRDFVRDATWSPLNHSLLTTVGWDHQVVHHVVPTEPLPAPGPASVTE
Protocol: as §1

PRMT3 = PRMT3 (Homo sapiens, UniProt O60678); test: Radioisotope-based filter-binding (HotSpot) assay, PRMT3; settings: radioisotope-based filter assay
Sequence of PRMT3 (O60678 2-531): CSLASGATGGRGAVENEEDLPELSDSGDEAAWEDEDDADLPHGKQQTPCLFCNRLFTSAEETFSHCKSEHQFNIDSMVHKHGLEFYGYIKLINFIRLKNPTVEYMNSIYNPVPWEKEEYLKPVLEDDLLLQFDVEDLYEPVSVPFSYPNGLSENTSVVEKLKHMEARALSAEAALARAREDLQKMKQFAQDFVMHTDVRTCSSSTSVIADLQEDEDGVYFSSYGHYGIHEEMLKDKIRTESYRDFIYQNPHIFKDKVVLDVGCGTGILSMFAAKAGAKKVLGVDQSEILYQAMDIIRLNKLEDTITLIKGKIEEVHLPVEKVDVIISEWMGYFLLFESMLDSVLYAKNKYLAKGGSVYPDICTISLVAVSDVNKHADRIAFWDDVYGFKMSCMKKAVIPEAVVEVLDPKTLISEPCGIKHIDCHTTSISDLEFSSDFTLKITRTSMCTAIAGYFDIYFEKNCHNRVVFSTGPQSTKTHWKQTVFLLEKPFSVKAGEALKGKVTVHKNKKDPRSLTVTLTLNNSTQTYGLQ
Protocol: as §1

PRMT1 = PRMT1 (Homo sapiens, UniProt Q99873); test: Radioisotope-based filter-binding (HotSpot) assay, PRMT1; settings: for IC50: radioisotope-based filter assay
Sequence of PRMT1 (Q99873 2-371): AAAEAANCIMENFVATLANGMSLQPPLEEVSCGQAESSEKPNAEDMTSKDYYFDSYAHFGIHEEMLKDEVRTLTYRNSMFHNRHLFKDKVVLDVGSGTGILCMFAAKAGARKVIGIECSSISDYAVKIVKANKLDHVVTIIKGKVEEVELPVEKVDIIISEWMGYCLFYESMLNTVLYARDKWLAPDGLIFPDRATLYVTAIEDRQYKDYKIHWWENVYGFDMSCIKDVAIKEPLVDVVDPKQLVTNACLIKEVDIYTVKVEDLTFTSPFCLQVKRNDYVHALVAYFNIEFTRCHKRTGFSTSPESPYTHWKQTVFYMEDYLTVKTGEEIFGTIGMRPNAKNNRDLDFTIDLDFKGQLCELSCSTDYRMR
Protocol: as §1

PRMT4 = target: T2, PRMT4 (Homo sapiens, UniProt Q86X55); test: Radioisotope-based filter-binding (HotSpot) assay, PRMT4; settings: for LE: ligand efficiency for PRMT4 calculated from IC50 as a surrogate for KD; for selectivity index for PRMT4 vs other PRMTs: PRMT1: ratio IC50 PRMT1 / IC50 PRMT4, rounded to nearest integer; for selectivity index for PRMT4 vs other PRMTs: PRMT3: ratio IC50 PRMT3 / IC50 PRMT4; for selectivity index for PRMT4 vs other PRMTs: PRMT5: ratio IC50 PRMT5 / IC50 PRMT4; for selectivity index for PRMT4 vs other PRMTs: PRMT6: ratio IC50 PRMT6 / IC50 PRMT4; for selectivity index for PRMT4 vs other PRMTs: PRMT7: ratio IC50 PRMT7 / IC50 PRMT4; for selectivity index for PRMT4 vs other PRMTs: PRMT8: ratio IC50 PRMT8 / IC50 PRMT4; for IC50: radioisotope-based filter assay; for SI PRMT1 (Figure 5 heatmap): selectivity index for PRMT4 over PRMT1; for SI PRMT3 (Figure 5 heatmap): selectivity index for PRMT4 over PRMT3; for SI PRMT5 (Figure 5 heatmap): selectivity index for PRMT4 over PRMT5; for SI PRMT6 (Figure 5 heatmap): selectivity index for PRMT4 over PRMT6; for SI PRMT7 (Figure 5 heatmap): selectivity index for PRMT4 over PRMT7; for SI PRMT8 (Figure 5 heatmap): selectivity index for PRMT4 over PRMT8
T2 sequence (Q86X55 2-608): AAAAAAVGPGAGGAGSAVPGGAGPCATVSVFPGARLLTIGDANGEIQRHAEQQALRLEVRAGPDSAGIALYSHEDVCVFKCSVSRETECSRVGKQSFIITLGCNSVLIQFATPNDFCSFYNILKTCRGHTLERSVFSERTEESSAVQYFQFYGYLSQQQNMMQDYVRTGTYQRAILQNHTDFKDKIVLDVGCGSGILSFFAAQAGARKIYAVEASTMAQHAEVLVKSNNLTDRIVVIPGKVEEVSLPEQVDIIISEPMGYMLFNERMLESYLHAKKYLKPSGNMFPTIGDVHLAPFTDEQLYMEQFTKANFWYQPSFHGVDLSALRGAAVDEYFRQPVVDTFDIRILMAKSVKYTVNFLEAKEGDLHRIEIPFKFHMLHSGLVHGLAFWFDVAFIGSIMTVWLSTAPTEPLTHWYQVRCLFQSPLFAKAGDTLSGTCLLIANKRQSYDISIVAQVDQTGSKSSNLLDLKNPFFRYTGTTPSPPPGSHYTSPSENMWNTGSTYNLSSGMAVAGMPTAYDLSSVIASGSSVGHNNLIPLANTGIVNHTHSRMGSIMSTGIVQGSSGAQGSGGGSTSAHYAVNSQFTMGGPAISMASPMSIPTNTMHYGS
Protocol: as §1

[1] = read-out: IC50 (μM) PRMT6, 5 μM GST-GAR, 1 μM 3H-SAM
[2] = read-out: IC50 (μM) PRMT8, 5 μM histone H4, 1 μM 3H-SAM
[3] = read-out: IC50 PRMT8 (Figure 5 heatmap)
[4] = read-out: IC50 (μM) PRMT5, radioisotope-based filter assay, 5 μM histone H2A, 1 μM 3H-SAM
[5] = read-out: IC50 (μM) PRMT3, 5 μM histone H4, 1 μM 3H-SAM
[6] = read-out: IC50 (μM) PRMT1, 5 μM histone H4, 1 μM 3H-SAM
[7] = read-out: IC50 (μM) PRMT4, 5 μM histone H3, 1 μM 3H-SAM
[8] = read-out: IC50 PRMT4 (Figure 5 heatmap)
[9] = on increasing the linker between 4-hydroxy-2-naphthoate and guanidine (values equal the ratio to the IC50 of 12c)
[10] = read-out: IC50 PRMT5 (Figure 5 heatmap), radioisotope-based filter assay
[11] = read-out: IC50 PRMT3 (Figure 5 heatmap)
[12] = read-out: IC50 PRMT1 (Figure 5 heatmap)
[13] = read-out: IC50 PRMT6 (Figure 5 heatmap)

IC50 (PRMT7)	IC50 (PRMT6; [1])	IC50 (ΔN(1–60)-PRMT8; [2])	IC50 (ΔN(1–60)-PRMT8; [3])	IC50 (PRMT5/MEP50 complex; [4])	IC50 (PRMT3; [5])	IC50 (PRMT1; [6])	LE (PRMT4)	selectivity index for PRMT4 vs other PRMTs: PRMT1 (PRMT4)	selectivity index for PRMT4 vs other PRMTs: PRMT3 (PRMT4)	selectivity index for PRMT4 vs other PRMTs: PRMT5 (PRMT4)	selectivity index for PRMT4 vs other PRMTs: PRMT6 (PRMT4)	selectivity index for PRMT4 vs other PRMTs: PRMT7 (PRMT4)	selectivity index for PRMT4 vs other PRMTs: PRMT8 (PRMT4)	IC50 (PRMT4; [7])	SI PRMT1 (Figure 5 heatmap) (PRMT4)	SI PRMT3 (Figure 5 heatmap) (PRMT4)	SI PRMT6 (Figure 5 heatmap) (PRMT4)	SI PRMT7 (Figure 5 heatmap) (PRMT4)	SI PRMT8 (Figure 5 heatmap) (PRMT4)	SMILES	further results
0.22 µM	> 100 µM	5.87 µM	5.87 µM	51.4 µM	21.3 µM	8.46 µM	0.19	20	51	122	>238	0.52	14	0.42 µM	20 fold	51 fold	> 238 fold	0.52 fold	14 fold	COC(=O)c1cc(O)c2cc(NC(=O)NCCCCCNC(=N)NC[C@H]3O[C@@H](n4cnc5c(N)ncnc54)[C@H](O)[C@@H]3O)ccc2c1 [12c, Methyl 6-(3-(5-(3-(((2R,3S,4R,5R)-5-(6-Amino-9H-purin-9-yl)-3,4-dihydroxytetrahydrofuran-2-yl)methyl)guanidino)pentyl)ureido)-4-hydroxy-2-naphthoate]	IC50 (PRMT5/MEP50 complex): 5.14 µM; IC50 (PRMT4; [8]): 0.421 µM; SI PRMT5 (Figure 5 heatmap) (PRMT4): 122 fold
0.631 µM	35.6 µM	5.84 µM		3.38 µM	12.4 µM	2.6 µM	0.20	15	70	19	202	4	33	0.176 µM	15 fold	70 fold	202 fold	4 fold	33 fold	COC(=O)c1cc(O)c2cc(NC(=O)NCCCCCCCNC(=N)NC[C@H]3O[C@@H](n4cnc5c(N)ncnc54)[C@H](O)[C@@H]3O)ccc2c1 [12e, Methyl 6-(3-(7-(3-(((2R,3S,4R,5R)-5-(6-Amino-9H-purin-9-yl)-3,4-dihydroxytetrahydrofuran-2-yl)methyl)guanidino)heptyl)ureido)-4-hydroxy-2-naphthoate]	gain in the inhibitory activity against PRMT5 (PRMT5/MEP50 complex; [9]): 15.2 fold; IC50 (PRMT5/MEP50 complex; [10]): 3.38 µM; IC50 (PRMT3; [11]): 12.4 µM; gain in the inhibitory activity against PRMT1 (PRMT1; [9]): 3.2 fold; IC50 (PRMT1; [12]): 2.6 µM; gain in the inhibitory activity against PRMT4 (PRMT4; [9]): 2.4 fold; SI PRMT5 (Figure 5 heatmap) (PRMT4): 19 fold
0.226 µM	22.7 µM	6 µM	6 µM	0.115 µM	10.5 µM	4.86 µM	0.24	501	1082	12	2340	23	619	0.0097 µM	501 fold	1,082 fold	2,340 fold	23 fold	619 fold	COC(=O)c1cc(O)c2cc(NC(=O)NCCCCNC(=N)NCC[C@H]3O[C@@H](n4cnc5c(N)ncnc54)[C@H](O)[C@@H]3O)ccc2c1 [12f, Methyl 6-(3-(4-(3-(2-((2R,3S,4R,5R)-5-(6-Amino-9H-purin-9-yl)-3,4-dihydroxytetrahydrofuran-2-yl)ethyl)guanidino)butyl)ureido)-4-hydroxy-2-naphthoate]	IC50 (PRMT6; [13]): 22.7 µM; IC50 (PRMT3; [11]): 10.5 µM; IC50 (PRMT1; [12]): 4.86 µM; IC50 (PRMT4; [8]): 0.01 µM
4.68 µM	4.34 µM	1.41 µM	1.41 µM	0.778 µM	13.3 µM	1.8 µM	0.24	214	1583	93	517	557	168	0.0084 µM	214 fold	1,583 fold	517 fold	557 fold	168 fold	COC(=O)c1cc(O)c2cc(NC(=O)NCCCCNC(=N)NCCC[C@H]3O[C@@H](n4cnc5c(N)ncnc54)[C@H](O)[C@@H]3O)ccc2c1 [12g, Methyl 6-(3-(4-(3-(3-((2R,3S,4R,5R)-5-(6-Amino-9H-purin-9-yl)-3,4-dihydroxytetrahydrofuran-2-yl)propyl)guanidino)butyl)ureido)-4-hydroxy-2-naphthoate]	IC50 (PRMT6; [13]): 4.34 µM; IC50 (PRMT3; [11]): 13.2 µM; IC50 (PRMT1; [12]): 1.79 µM; IC50 (PRMT4; [8]): 0.008 µM; SI PRMT5 (Figure 5 heatmap) (PRMT4): 93 fold

SMILES	IC50 (PRMT7)	IC50 (PRMT6; [1])	IC50 (ΔN(1–60)-PRMT8; [2])	IC50 (ΔN(1–60)-PRMT8; [3])	IC50 (PRMT5/MEP50 complex; [4])	IC50 (PRMT3; [5])	IC50 (PRMT1; [6])	LE (PRMT4)	selectivity index for PRMT4 vs other PRMTs: PRMT1 (PRMT4)	selectivity index for PRMT4 vs other PRMTs: PRMT3 (PRMT4)	selectivity index for PRMT4 vs other PRMTs: PRMT5 (PRMT4)	selectivity index for PRMT4 vs other PRMTs: PRMT6 (PRMT4)	selectivity index for PRMT4 vs other PRMTs: PRMT7 (PRMT4)	selectivity index for PRMT4 vs other PRMTs: PRMT8 (PRMT4)	IC50 (PRMT4; [7])	SI PRMT1 (Figure 5 heatmap) (PRMT4)	SI PRMT3 (Figure 5 heatmap) (PRMT4)	SI PRMT6 (Figure 5 heatmap) (PRMT4)	SI PRMT7 (Figure 5 heatmap) (PRMT4)	SI PRMT8 (Figure 5 heatmap) (PRMT4)	further results
COC(=O)c1cc(O)c2cc(NC(=O)NCCCCNC(=N)NC/C=C/[C@H]3O[C@@H](n4cnc5c(N)ncnc54)[C@H](O)[C@@H]3O)ccc2c1 [12h, Methyl 6-(3-(4-(3-((E)-3-((2R,3S,4R,5R)-5-(6-Amino-9H-purin-9-yl)-3,4-dihydroxytetrahydrofuran-2-yl)allyl)guanidino)butyl)ureido)-4-hydroxy-2-naphthoate]	1.68 µM	1.75 µM	1.95 µM	1.95 µM	1.46 µM	4.05 µM									0.0032 µM						IC50 (PRMT6; [13]): 1.75 µM; IC50 (PRMT5/MEP50 complex; [10]): 1.46 µM; IC50 (PRMT3; [11]): 4.04 µM; IC50 (PRMT4; IC50 PRMT4 (Figure 5 heatmap)): 0.003 µM; gain in potency over its shorter counterpart 12b (PRMT4; PRMT4): 668 fold
